Test results as given in US11180462B2, “Microbiocidal oxadiazole derivatives” (SYNGENTA PARTICIPATIONS AG, priority 2015, dated 2021).

Legend:
[1] = system: Puccinia recondita f. Sp. Tritici; assay: Fungicidal activity against Puccinia recondita f. sp. tritici / wheat / leaf disc preventative (brown rust); type: in vivo; conditions: foliar, 200 ppm in the applied formulation, wheat leaf segments, preventative, compared to untreated control leaf disks, read-out: disease control
How it was run: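 Compound application precedes infection: segments of wheat cv. Kanzler, sprayed at 200 ppm, are inoculated with a spore suspension after 1 day. Incubation is at 19° C. with 75% relative humidity and 12 h light/12 h darkness, and control versus untreated leaves is rated 7 to 9 days post-application.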

[2] = system: Puccinia recondita f. Sp. Tritici; assay: Fungicidal activity against Puccinia recondita f. sp. tritici / wheat / leaf disc curative (brown rust); type: in vivo; conditions: foliar, 24 h, 200 ppm in the applied formulation, wheat leaf segments, curative (applied 1 day after inoculation), compared to untreated control leaf disks, read-out: disease control
How it was run: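 Wheat cv. Kanzler leaf segments on agar, inoculated with rust spore suspension, kept dark at 19° C and 75% RH; formulated compound sprayed 1 day post-inoculation. Incubated 19° C, 75% RH, 12 h light/12 h dark; percent disease control vs untreated scored 6 to 8 days after application.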

[3] = system: Phakopsora Pachyrhizi; assay: Fungicidal activity against Phakopsora pachyrhizi / soybean / leaf disc preventative (Asian soybean rust); type: in vivo; conditions: foliar, 200 ppm in the applied formulation, soybean leaf disks, compared to untreated control leaf disks, read-out: disease control
How it was run: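 Preventative soybean leaf-disc test: discs on water agar sprayed with diluted formulated compound, inoculated one day later with spores on the lower surface. Held 24–36 h dark at 20°C, 75% rh, then 12 h light/day; percent disease control versus untreated discs scored 12–14 days after application.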

[4] = system: Glomerella lagenarium (Colletotrichum lagenarium); assay: Fungicidal activity against Glomerella lagenarium (Colletotrichum lagenarium) liquid culture / cucumber / preventative (anthracnose); type: cell-based; conditions: Colletotrichum orbiculare; 20 ppm in the applied formulation; liquid culture (PDB), growth inhibition measured photometrically after 3 to 4 days; compared to untreated control; read-out: disease control
How it was run: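 Photometric read-out of fungal growth after 2–7 days, expressed as percent antifungal activity versus untreated check. Cryo-stored conidia in PDB; compound at 20 ppm; dark, 24 °C, 96% RH.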

COCCN(Cc1ccc(-c2noc(C(F)(F)F)n2)cc1)C(=O)C1(C#N)CC1 [Compound 1.356, 1-cyano-N-(2-methoxyethyl)-N-[[4-[5-(trifluoromethyl)-1,2,4-oxadiazol-3-yl]phenyl]methyl]-cyclopropane-carboxamide]
≥ 80%: pest or weed control at 200 ppm [1] | pest or weed control at 200 ppm [2] | pest or weed control at 200 ppm [3] | inhibition of growth at 20 ppm [4]

COCCN(Cc1ccc(-c2noc(C(F)(F)F)n2)cc1)C(=O)C1CC1F (centres unmarked) [Compound 1.358, 2-fluoro-N-(2-methoxyethyl)-N-[[4-[5-(trifIuoromethyl)-1,2,4-oxadiazol-3-yl]phenyl]methyl]-cyclopropane-carboxamide]
≥ 80%: pest or weed control at 200 ppm [1] | pest or weed control at 200 ppm [2] | pest or weed control at 200 ppm [3] | inhibition of growth at 20 ppm [4]

COCCN(Cc1ccc(-c2noc(C(F)(F)F)n2)cc1)C(=O)C(C)OC (centres unmarked) [Compound 1.359, 2-methoxy-N-(2-methoxyethyl)-N-[[4-[5-(trifluoromethyl)-1,2,4-oxadiazol-3-yl]phenyl]methyl]-propanamide]
≥ 80%: pest or weed control at 200 ppm [1] | pest or weed control at 200 ppm [2] | pest or weed control at 200 ppm [3] | inhibition of growth at 20 ppm [4]

COCCN(Cc1ccc(-c2noc(C(F)(F)F)n2)cc1)C(=O)C1OCCO1 [Compound 1.360, N-(2-methoxyethyl)-N-[[4-[5-(trifluoromethyl)-1,2,4-oxadiazol-3-yl]phenyl]methyl]-1,3-dioxolane-2-carboxamide]
≥ 80%: pest or weed control at 200 ppm [1] | pest or weed control at 200 ppm [2] | pest or weed control at 200 ppm [3] | inhibition of growth at 20 ppm [4]

COCCN(Cc1ccc(-c2noc(C(F)(F)F)n2)cc1)C(=O)CC(F)(F)F [Compound 1.361, 3,3,3-trifluoro-N-(2-methoxyethyl)-N-[[4-[5-(trifluoromethyl)-1,2,4-oxadiazol-3-yl]phenyl]methyl]-propanamide]
≥ 80%: pest or weed control at 200 ppm [1] | pest or weed control at 200 ppm [2] | pest or weed control at 200 ppm [3] | inhibition of growth at 20 ppm [4]

COCCN(Cc1ccc(-c2noc(C(F)(F)F)n2)cc1)C(=O)C1CC1 [Compound 1.363, N-(2-methoxyethyl)-N-[[4-[5-(trifluoromethyl)-1,2,4-oxadiazol-3-yl]phenyl]methyl]-cyclopropane-carboxamide]
≥ 80%: pest or weed control at 200 ppm [1] | pest or weed control at 200 ppm [2] | pest or weed control at 200 ppm [3] | inhibition of growth at 20 ppm [4]

COCCCC(=O)N(CCOC)Cc1ccc(-c2noc(C(F)(F)F)n2)cc1 [Compound 1.365, 4-methoxy-N-(2-methoxyethyl)-N-[[4-[5-(trifluoromethyl)-1,2,4-oxadiazol-3-yl]phenyl]methyl]-butanamide]
≥ 80%: pest or weed control at 200 ppm [1] | pest or weed control at 200 ppm [2] | pest or weed control at 200 ppm [3] | inhibition of growth at 20 ppm [4]

CCC(C)N(Cc1ccc(-c2noc(C(F)(F)F)n2)cc1)C(=O)C1CCCCO1 (centres unmarked) [Compound 1.368, N-sec-butyl-N-[[4-[5-(trifluoromethyl)-1,2,4-oxadiazol-3-yl]phenyl]methyl]-tetrahydropyran-2-carboxamide]
≥ 80%: pest or weed control at 200 ppm [1] | pest or weed control at 200 ppm [2] | pest or weed control at 200 ppm [3] | inhibition of growth at 20 ppm [4]

CCC(C)N(Cc1ccc(-c2noc(C(F)(F)F)n2)cc1)C(=O)C(C)C (centres unmarked) [Compound 1.369, 2-methyl-N-sec-butyl-N-[[4-[5-(trifluoromethyl)-1,2,4-oxadiazol-3-yl]phenyl]methyl]-propanamide]
≥ 80%: pest or weed control at 200 ppm [1] | pest or weed control at 200 ppm [2] | pest or weed control at 200 ppm [3] | inhibition of growth at 20 ppm [4]

CCC(C)N(Cc1ccc(-c2noc(C(F)(F)F)n2)cc1)C(=O)COC (centres unmarked) [Compound 1.372, 2-methoxy-N-sec-bulyl-N-[[4-[5-(trifluoromethyl)-1,2,4-oxadiazol-3-yl]phenyl]methyl]-acetamide]
≥ 80%: pest or weed control at 200 ppm [1] | pest or weed control at 200 ppm [2] | pest or weed control at 200 ppm [3] | inhibition of growth at 20 ppm [4]

CCC(C)N(Cc1ccc(-c2noc(C(F)(F)F)n2)cc1)C(=O)CCOC (centres unmarked) [Compound 1.379, 3-methoxy-N-sec-butyl-N-[[4-[5-(trifluoromethyl)-1,2,4-oxadiazol-3-yl]phenyl]methyl]-propanamide]
≥ 80%: pest or weed control at 200 ppm [1] | pest or weed control at 200 ppm [2] | pest or weed control at 200 ppm [3] | inhibition of growth at 20 ppm [4]

CCC(C)N(Cc1ccc(-c2noc(C(F)(F)F)n2)cc1)C(=O)COCCOC (centres unmarked) [Compound 1.384, 2-(2-methoxyethoxy)-N-sec-butyl-N-[[4-[5-(trifluoromethyl)-1,2,4-oxadiazol-3-yl]phenyl]methyl]-acetamide]
≥ 80%: pest or weed control at 200 ppm [1] | pest or weed control at 200 ppm [2] | pest or weed control at 200 ppm [3] | inhibition of growth at 20 ppm [4]

C=CC(=O)N(Cc1ccc(-c2noc(C(F)(F)F)n2)cc1)C(C)CC (centres unmarked) [Compound 1.387, N-sec-butyl-N-[[4-[5-(trifluoromethyl)-1,2,4-oxadiazol-3-yl]phenyl]methyl]-prop-2-enamide]
≥ 80%: pest or weed control at 200 ppm [1] | pest or weed control at 200 ppm [2] | pest or weed control at 200 ppm [3] | inhibition of growth at 20 ppm [4]

CCC(=O)N(Cc1ccc(-c2noc(C(F)(F)F)n2)cc1)C(C)CC (centres unmarked) [Compound 1.389, N-sec-butyl-N-[[4-[5-(trifiuoromethyl)-1,2,4-oxadiazol-3-yl]phenyl]methyl]-propanamide]
≥ 80%: pest or weed control at 200 ppm [1] | pest or weed control at 200 ppm [2] | pest or weed control at 200 ppm [3] | inhibition of growth at 20 ppm [4]

C=C(C)C(=O)N(Cc1ccc(-c2noc(C(F)(F)F)n2)cc1)C(C)CC (centres unmarked) [Compound 1.390, 2-methyl-N-sec-butyl-N-[[4-[5-(trifluoromethyl)-1,2,4-oxadiazol-3-yl]phenyl]methyl]-prop-2-enamide]
≥ 80%: pest or weed control at 200 ppm [1] | pest or weed control at 200 ppm [2] | pest or weed control at 200 ppm [3] | inhibition of growth at 20 ppm [4]

CCC(C)N(Cc1ccc(-c2noc(C(F)(F)F)n2)cc1)C(=O)COC(C)=O (centres unmarked) [Compound 1.392, [2-oxo-2-[sec-butyl-[[4-[5-(trifluoromethyl)-1,2,4-oxadiazol-3-yl]phenyl]methyl]-amino]ethyl] acetate]
≥ 80%: pest or weed control at 200 ppm [1] | pest or weed control at 200 ppm [2] | pest or weed control at 200 ppm [3] | inhibition of growth at 20 ppm [4]

CCC(C)N(Cc1ccc(-c2noc(C(F)(F)F)n2)cc1)C(=O)C1(C)COC1 (centres unmarked) [Compound 1.395, 3-methyl-N-sec-butyl-N-[[4-[5-(trifluoromethyl)-1,2,4-oxadiazol-3-yl]phenyl]methyl]-oxetane-3-carboxamide]
≥ 80%: pest or weed control at 200 ppm [1] | pest or weed control at 200 ppm [2] | pest or weed control at 200 ppm [3] | inhibition of growth at 20 ppm [4]

CCC(C)N(Cc1ccc(-c2noc(C(F)(F)F)n2)cc1)C(=O)C1CCCO1 (centres unmarked) [Compound 1.398, N-sec-butyl-N-[[4-[5-(trifluoromethyl)-1,2,4-oxadiazol-3-yl]phenyl]methyl]-tetrahydrofuran-2-carboxamide]
≥ 80%: pest or weed control at 200 ppm [1] | pest or weed control at 200 ppm [2] | pest or weed control at 200 ppm [3] | inhibition of growth at 20 ppm [4]

CCC(C)N(Cc1ccc(-c2noc(C(F)(F)F)n2)cc1)C(=O)C1(C#N)CC1 (centres unmarked) [Compound 1.399, 1-cyano-N-sec-butyl-N-[[4-[5-(trifluoromethyl)-1,2,4-oxadiazol-3-yl]phenyl]methyl]-cyclopropane-carboxamide]
≥ 80%: pest or weed control at 200 ppm [1] | pest or weed control at 200 ppm [2] | pest or weed control at 200 ppm [3] | inhibition of growth at 20 ppm [4]

CCC(C)N(Cc1ccc(-c2noc(C(F)(F)F)n2)cc1)C(=O)C1CC1F (centres unmarked) [Compound 1.401, 2-fluoro-N-sec-butyl-N-[[4-[5-(trifluoromethyl)-1,2,4-oxadiazol-3-yl]phenyl]methyl]-cyclopropane-carboxamide]
≥ 80%: pest or weed control at 200 ppm [1] | pest or weed control at 200 ppm [2] | pest or weed control at 200 ppm [3] | inhibition of growth at 20 ppm [4]

CCC(C)N(Cc1ccc(-c2noc(C(F)(F)F)n2)cc1)C(=O)C(C)OC (centres unmarked) [Compound 1.402, 2-methoxy-N-sec-butyl-N-[[4-(5-(trifluoromethyl)-1,2,4-oxadiazol-3-yl]phenyl]methyl]-propanamide]
≥ 80%: pest or weed control at 200 ppm [1] | pest or weed control at 200 ppm [2] | pest or weed control at 200 ppm [3] | inhibition of growth at 20 ppm [4]

CCC(C)N(Cc1ccc(-c2noc(C(F)(F)F)n2)cc1)C(=O)C1OCCO1 (centres unmarked) [Compound 1.403, N-sec-butyl-N-[[4-[5-(trifluoromethyl)-1,2,4-oxadiazol-3-yl]phenyl]methyl]-1,3-dioxolane-2-carboxamide]
≥ 80%: pest or weed control at 200 ppm [1] | pest or weed control at 200 ppm [2] | pest or weed control at 200 ppm [3] | inhibition of growth at 20 ppm [4]

CCC(C)N(Cc1ccc(-c2noc(C(F)(F)F)n2)cc1)C(=O)CC(F)(F)F (centres unmarked) [Compound 1.404]
≥ 80%: pest or weed control at 200 ppm [1] | pest or weed control at 200 ppm [2] | pest or weed control at 200 ppm [3] | inhibition of growth at 20 ppm [4]
